Measurements: US20230047208A1, “RNA Splicing Modulation” (The General Hospital Corporation, priority 2020, published 2023)

System: wildtype (WT) human fibroblast cell lines
Experiment: Transcriptome-wide splicing by RNA sequencing (RNASeq), exon triplet PSI change;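 as to T-PSI: T-PSI is average treated PSI after seven days of treatment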
Format: cell-based
Parameters: key to Effect: Exclusion; Inclusion; Unchanged
Description: FIG. 2A provides a representation of an exon triplet. Exon U is upstream of Exon X, which is upstream of Exon D. R1, R2 and R3 represent RNA sequencing (RNASeq) reads spanning the regions between two adjacent exons. UI1, I1X, XI2 and I2D are four regions flanking the four splice sites of the exon-triplet. Each flanking region consists of 25 exonic base pairs and 75 intronic base pairs.
FIG. 2B provides a volcano plot showing the ψ (PSI: Percent Spliced-In) changes in splicing after treatment with Compound (I). Each dot represents one of the 161,097 expressed exon triplets in human fibroblasts. The x axis represents the ψ changes after treatment and the y axis represents the False Discovery Rate (FDR) (log 10 transformed). […] The horizontal dashed line indicates an FDR of 0.1. The dots on the right side of the right vertical dashed line and above the horizontal dashed line represent the exon-triplets with an increase for Exon X inclusion (Δψ≥0.1 and FDR<0.1) while the dots on left side of the left vertical dashed line and above the horizontal dashed line represent an increase for Exon X exclusion (Δψ≤−0.1 and FDR<0.1). Black dots in-between the two vertical dashed lines represent exon-triplets unchanged from the treatment.
In some aspects, analysis is performed on data derived from the assay to measure the magnitude of splicing to determine the amount of exons spliced into an mRNA transcript that is produced in the presence of Compound (I) relative to the amount in the absence of Compound (I) or presence of a negative control. In a preferred aspect, the method utilized is calculation of change in Percent Spliced In (ΔPSI). […] The ΔPSI value is derived from the formula: […]
The values for “a” and “b” represent the number of reads supporting the probability for potential inclusion or exclusion of an exon in an RNA transcript. The “a” value is derived from the number of reads within an exon triplet covering, in 5′ to 3′ order: the last few bases (>1 nucleotide) of an upstream exon operably linked to the first few bases (>1 nucleotide) of a middle exon. The “b” value is derived from the number of reads within an exon triplet covering, in 5′ to 3′ order: the last few bases (>1 nucleotide) of the middle exon operably linked to the first few bases (>1 nucleotide) of a downstream exon. The number of reads will indicate whether the splice junction of a middle exon has been identified as potentially having a CNN Motif(s) by the CNN Model described herein, wherein the inclusion or exclusion of the middle exon may be modulated in the presence of Compound (I) to produce one or more mature RNA isoforms from the gene transcript. The value for “c” represents the number of reads supporting the exclusion of the middle exon.
The effect on splicing modulation and corresponding splice differences toward exon inclusion or exclusion was determined by counting the RNASeq reads covering two splice junctions of exon triplets (three consecutive exons: Exon U, Exon X, Exon D) and the corresponding intervening introns, then comparing the change in Percent Spliced In (ΔPSI or Δψ) of the middle exon (Exon X) after treatment (as shown in FIG. 2A)^52,53. 934 exon triplets were identified showing differential middle exon inclusion or exclusion in response to Compound (I) treatment. Of these, 254 were exon inclusion events (Δψ≥0.1 and FDR<0.1) and 680 were exon exclusion events (Δψ≤−0.1 and FDR<0.1) (as shown in FIG. 2B). […] The splicing results were evaluated by RT-PCR in independent replicate experiments, confirming all the calculated Δψ values. […]

## Clc1nc(NCc2ccncc2)c2cc[nH]c2n1 [Compound (I), 2-chloro-N-(pyridin-4-ylmethyl)-7H-pyrrolo[2,3-d]pyrimidin-4-amine]
934 out of 161,097 expressed triplets
  splicing changes, share of all expressed triplets: 0.58%
Exc/Inc/Unc of the middle exon of the exon triplet, six WT human fibroblast cell lines treated for seven days vs DMSO, gene LENG8
  Effect: Exc
Exc/Inc/Unc of the middle exon of the exon triplet, six WT human fibroblast cell lines treated for seven days vs DMSO, gene LGALS8
  Effect: Inc
Exc/Inc/Unc of the middle exon of the exon triplet, six WT human fibroblast cell lines treated for seven days vs DMSO, gene LRP12
  Effect: Unc
MYO1B Exon 192265475-192265561
  Effect: Inc
  T-PSI: 0.296
  ΔPSI: 0.128
MYO1B Exon 192267358-192267444
  Effect: Inc
  T-PSI: 0.483
  ΔPSI: 0.190
MYO5A Exon 52630007-52630081
  Effect: Exc
  T-PSI: 0.063
  ΔPSI: −0.118
MYO5A Exon 52635314-52635394
  Effect: Unc
  T-PSI: 0.617
  ΔPSI: 0.007
MYO5A Exon 52641015-52641023
  Effect: Inc
  T-PSI: 0.953
  ΔPSI: 0.130
MYO18A Exon 27464034-27464102
  Effect: Unc
  T-PSI: 0.330
  ΔPSI: 0.005
MYO19 Exon 34870956-34871025
  Effect: Exc
  T-PSI: 0.870
  ΔPSI: −0.109
N6AMT2 Exon 21311862-21311944
  Effect: Unc
  T-PSI: 0.755
  ΔPSI: 0.010
NABP1 Exon 192547218-192547321
  Effect: Inc
  T-PSI: 0.729
  ΔPSI: 0.198
NADK2 Exon 36208727-36208792
  Effect: Exc
  T-PSI: 0.005
  ΔPSI: −0.102
NAE1 Exon 66860571-66860683
  Effect: Exc
  T-PSI: 0.596
  ΔPSI: −0.315
NAE1 Exon 66860580-66860683
  Effect: Exc
  T-PSI: 0.859
  ΔPSI: −0.115
NBN Exon 90994181-90994230
  Effect: Exc
  T-PSI: 0.017
  ΔPSI: −0.156
NCK2 Exon 106497784-106498505
  Effect: Unc
  T-PSI: 0.586
  ΔPSI: −0.008
NCOR2 Exon 124811955-124812179
  Effect: Unc
  T-PSI: 0.657
  ΔPSI: 0.000
NCOR2 Exon 124812093-124812179
  Effect: Unc
  T-PSI: 0.681
  ΔPSI: −0.001
NEDD1 Exon 97301382-97301634
  Effect: Unc
  T-PSI: 0.826
  ΔPSI: −0.003
NEDD1 Exon 97301480-97301634
  Effect: Unc
  T-PSI: 0.878
  ΔPSI: 0.008
NEK1 Exon 170508710-170508764
  Effect: Exc
  T-PSI: 0.830
  ΔPSI: −0.152
NEO1 Exon 73567033-73567065
  Effect: Inc
  T-PSI: 0.149
  ΔPSI: 0.120
NEXN Exon 78390873-78390914
  Effect: Exc
  T-PSI: 0.654
  ΔPSI: −0.138
NF2 Exon 30079009-30079053
  Effect: Inc
  T-PSI: 0.900
  ΔPSI: 0.167
NF2 Exon 30079009-30079068
  Effect: Inc
  T-PSI: 0.807
  ΔPSI: 0.244
NFE2L1 Exon 46134394-46134483
  Effect: Exc
  T-PSI: 0.327
  ΔPSI: −0.156
